Results published in patent US11168102B1, “Bicyclic heteroaryl compounds and uses thereof” (Revolution Medicines, Inc., priority 2019, dated 2021).
Read-outs that look alike come from different tables or passages of the source. One block for each compound: values may come before it.

Key:
[1] = biological target: SOS1 catalytic domain (residues 564-1049) (Homo sapiens (Human), UniProt Q07889); assay: Potency assay: binding affinity to SOS1 by Surface Plasmon Resonance (SPR); settings: avi-tagged SOS1 catalytic domain immobilized on sensor chip; 1:1 equilibrium binding fit
Chain of SOS1 catalytic domain (residues 564-1049) (Q07889 564-1049): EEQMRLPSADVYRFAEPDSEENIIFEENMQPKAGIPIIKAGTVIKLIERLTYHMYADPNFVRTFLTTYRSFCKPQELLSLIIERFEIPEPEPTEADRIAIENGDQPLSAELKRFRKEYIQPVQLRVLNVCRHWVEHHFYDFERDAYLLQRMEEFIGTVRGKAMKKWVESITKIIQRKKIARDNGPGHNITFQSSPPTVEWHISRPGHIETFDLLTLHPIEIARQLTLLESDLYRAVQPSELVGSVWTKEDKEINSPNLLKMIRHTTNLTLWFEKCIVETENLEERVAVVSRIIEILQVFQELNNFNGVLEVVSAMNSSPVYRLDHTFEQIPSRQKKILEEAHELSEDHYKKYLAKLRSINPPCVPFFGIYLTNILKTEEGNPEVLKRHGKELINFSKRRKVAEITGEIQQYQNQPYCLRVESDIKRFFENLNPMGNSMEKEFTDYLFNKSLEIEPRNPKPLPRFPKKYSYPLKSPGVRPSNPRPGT

[2] = biological target: SOS1 nucleotide exchange of wild-type KRAS (Homo sapiens (Human), UniProt Q07889); assay: Mode of action assay: inhibition of SOS1 nucleotide exchange activity (TR-FRET); format: biochemical; settings: SOS1 catalytic domain (564-1049), avi-tagged KRAS (1-169), EDA-GTP-DY-647P1; three replicates
Chain of SOS1 nucleotide exchange of wild-type KRAS (Q07889 564-1049): as above

[3] = tested on: cellular pERK in PC-9 cells (EGFR Ex19Del); assay: Potency assay: pERK (AlphaLISA SureFire Ultra p-ERK1/2) in PC-9 cells; format: cell-based; settings: PC-9 cells (EGFR Ex19Del), 1 hour incubation, AlphaLISA SureFire Ultra p-ERK1/2, read-out: SOS1 pERK IC50

Compound: Cc1nc(N[C@H](C)c2cccc(C(F)F)c2F)c2cc(C3CCS(=O)(=O)CC3)c(=O)n(C)c2n1 [Example 8-12]
Kd [1]: 83.4 nM
IC50 [2]: 65 nM

IC50 ([3]; Homo sapiens, PC-9, 1 h): 9.79 nM
IC50 [2]: 4.77 nM
Compound: COC1(c2cc3c(N[C@H](C)c4cccc(C(F)F)c4F)nc(C)nc3n(C)c2=O)CCN(C(C)=O)CC1 [Example 32-32]

Compound: Cc1nc(N[C@H](C)c2cccc(C(F)F)c2F)c2cc(C3CCN(CC(F)(F)F)CC3)c(=O)n(C)c2n1 [Example 8-17]
Kd [1]: 796 nM
IC50 [2]: 708 nM

Compound: CC(=O)N1CCC(c2cc3c(N[C@H](C)c4cccc(C(F)F)c4F)nc(C)nc3n(C)c2=O)CC1 [Example 8-9]
Kd [1]: 120 nM
IC50 [2]: 53.6 nM

Compound: COc1ncccc1-c1cc2c(N[C@H](C)c3cccc(C(F)F)c3F)ncnc2n(C)c1=O [Example 21-7]
Kd [1]: 92.5 nM
IC50 [2]: 47.1 nM

Compound: C[C@@H](Nc1ncnc2c1cc(-c1ccc[nH]1)c(=O)n2C)c1cccc(C(F)F)c1F [Example 21-1]
Kd [1]: 1160 nM
IC50 [2]: 1070 nM

IC50 ([3]; Homo sapiens, PC-9, 1 h): 427 nM
IC50 [2]: 2080 nM
Compound: Cc1nc(N[C@H](C)c2cccc(C(F)F)c2F)c2cc(N3CC(F)(F)C3)c(=O)n(C)c2n1 [Example 2-2]

Compound: Cc1nc(N[C@H](C)c2cccc(C(F)F)c2F)c2cc(-c3cncnc3)c(=O)n(C)c2n1 [Example 21-4]
Kd [1]: 272 nM
IC50 [2]: 172 nM

IC50 ([3]; Homo sapiens, PC-9, 1 h): 8830 nM
IC50 [2]: > 20000 nM
Compound: C[C@@H](Nc1ncnc2c1cc(C(=O)N1CC3CC1CO3)c(=O)n2C)c1cccc(C(F)F)c1F (some centres unmarked) [Example 26-6]

IC50 [2]: > 20000 nM
Compound: COc1cccc(Cc2cc3c(N[C@H](C)c4cccc(C(F)F)c4F)nc(C)nc3n(C)c2=O)c1OC [Example 20]

Compound: Cc1nc(N[C@H](C)c2cccc(C(F)F)c2F)c2cc(N3CC4(COC4)C3)c(=O)n(C)c2n1 [Example 2-3]
Kd [1]: 89 nM
IC50 ([3]; Homo sapiens, PC-9, 1 h): 188 nM

Compound: Cc1nc(N[C@H](C)c2cccc(C(F)F)c2F)c2cc(C3=CCCOC3)c(=O)n(CCO)c2n1 [Example 11-1]
Kd [1]: 81.3 nM

IC50 [2]: 6170 nM
Compound: COc1ccc(Cc2cc3c(N[C@H](C)c4cccc(C(F)F)c4F)nc(C)nc3n(C)c2=O)cc1OC [Example 20-1]

IC50 [3]: 127 nM
Compound: C[C@@H](Nc1ncnc2c1cc(C1CCS(=N)(=O)CC1)c(=O)n2C)c1cccc(C(F)F)c1F (stereo partly drawn) [Example 35, (R)-4-((1-(3-(difluoromethyl)-2-fluorophenyl)ethyl)amino)-6-(1-imino-1-oxidohexahydro-1λ^6-thiopyran-4-yl)-8-methylpyrido[2,3-d]pyrimidin-7(8H)-one]

IC50 ([3]; Homo sapiens, PC-9, 1 h): 44 nM
Compound: COCC(=O)N1CCC(OC)(c2cc3c(N[C@H](C)c4cccc(C(F)F)c4F)ncnc3n(C)c2=O)CC1 [Example 32-13]

IC50 ([3]; Homo sapiens, PC-9, 1 h): 401 nM
Compound: C[C@@H](Nc1ncnc2c1cc(C(=O)N1CCN3CCOCC3C1)c(=O)n2C)c1cccc(C(F)F)c1F (some centres unmarked) [Example 26-44]

IC50 [3]: 376 nM
Compound: C[C@@H](Nc1ncnc2c1cc(C13CCOCC1C3)c(=O)n2C)c1cccc(C(F)F)c1F (single isomer, unassigned) [Example 54-3]

IC50 ([3]; Homo sapiens, PC-9, 1 h): 124 nM
Compound: COC1(c2cc3c(N[C@H](C)c4cccc(C(F)F)c4F)ncnc3n(C)c2=O)CCN(C(C)=O)CC1 [Example 32-1]

IC50 ([3]; Homo sapiens, PC-9, 1 h): 10 nM
Compound: CO[C@]1(c2cc3c(N[C@H](C)c4cccc(C(F)F)c4F)ncnc3n(C)c2=O)CCN(C(C)=O)C1 [Example 32-2]

IC50 [3]: 86.2 nM
Compound: C[C@@H](Nc1ncnc2c1cc(C1(F)CCC3(CC1)CS(=O)(=NC1CC1)C3)c(=O)n2C)c1cccc(C(F)F)c1F (single isomer, unassigned) [Example 56-3]

IC50 ([3]; Homo sapiens, PC-9, 1 h): 122 nM
Compound: C[C@@H](Nc1ncnc2c1cc(C1CC[S+]([O-])CC1)c(=O)n2C)c1cccc(C(F)F)c1F (stereo partly drawn) [Example 25, (R)-4-((1-(3-(difluoromethyl)-2-fluorophenyl)ethyl)amino)-8-methyl-6-(1-oxidotetrahydro-2H-thiopyran-4-yl)pyrido[2,3-d]pyrimidin-7(8H)-one]

IC50 ([3]; Homo sapiens, PC-9, 1 h): 34.6 nM
Compound: C[C@@H](Nc1ncnc2c1cc(C1(F)CCS(=O)(=O)CC1)c(=O)n2C)c1cccc(C(F)F)c1F [Example 29, 4-(4-{[(1R)-1-[3-(difluoromethyl)-2-fluorophenyl]ethyl]amino}-8-methyl-7-oxo-7H,8H-pyrido[2,3-d]-pyrimidin-6-yl)-4-fluoro-1λ^6-thiane-1,1-dione]

IC50 [3]: 81.2 nM
Compound: C[C@@H](Nc1ncnc2c1cc(C1(C#N)CCP(C)(=O)CC1)c(=O)n2C)c1cccc(C(F)F)c1F (some centres unmarked) [Example 36-13]

IC50 ([3]; Homo sapiens, PC-9, 1 h): 83.9 nM
Compound: C[C@@H](Nc1ncnc2c1cc(C1(OC3COC3)CCS(=O)(=O)CC1)c(=O)n2C)c1cccc(C(F)F)c1F [Example 32-57]

IC50 ([3]; Homo sapiens, PC-9, 1 h): 34.8 nM
Compound: C[C@@H](Nc1ncnc2c1cc(C1CCS(=O)(=O)CC1)c(=O)n2C)c1cccc2c1OCC2(F)F [Example 33-3]

IC50 ([3]; Homo sapiens, PC-9, 1 h): 58.4 nM
Compound: COC1(c2cc3c(N[C@H](C)c4cccc(C(F)F)c4F)ncnc3n(C)c2=O)CCS(=O)(=O)CC1 [Example 32, 4-(4-{[(1R)-1-[3-(difluoro-methyl)-2-fluorophenyl]ethyl]amino}-8-methyl-7-oxo-7H,8H-pyrido[2,3-d]pyrimidin-6-yl)-4-methoxy-λ1^6-thiane-1,1-dione]

IC50 ([3]; Homo sapiens, PC-9, 1 h): 729 nM
Compound: C[C@@H](Nc1ncnc2c1cc(C(=O)N1CC[C@@H]3CO[C@@H]3C1)c(=O)n2C)c1cccc(C(F)F)c1F [Example 26-16]

IC50 ([3]; Homo sapiens, PC-9, 1 h): 93.7 nM
Compound: C[C@@H](Nc1ncnc2c1cc(C1(O)CCS(=O)(=O)CC1)c(=O)n2C)c1cccc(C(F)F)c1F [Example 28, 4-(4-{[(1R)-1-[3-(difluoromethyl)-2-fluorophenyl]-ethyl]amino}-8-methyl-7-oxo-7H,8H-pyrido[2,3-d]pyrimidin-6-yl)-4-hydroxy-1λ^6-thiane-1,1-dione]

IC50 ([3]; Homo sapiens, PC-9, 1 h): 163 nM
Compound: C[C@@H](Nc1ncnc2c1cc(C1(F)CCP(C)(=O)CC1)c(=O)n2C)c1cccc(C(F)F)c1F (some centres unmarked) [Example 29-9]

IC50 ([3]; Homo sapiens, PC-9, 1 h): 79.4 nM
Compound: Cc1nc(N[C@H](C)c2cccc(C(F)(F)CO)c2)c2cc(C3=CCOCC3)c(=O)n(C)c2n1 [Example 3, (R)-4-((1-(3-(1,1-difluoro-2-hydroxyethyl)phenyl)ethyl)amino)-6-(3,6-dihydro-2H-pyran-4-yl)-2,8-dimethylpyrido[2,3-d]pyrimidin-7(8H)-one]

IC50 ([3]; Homo sapiens, PC-9, 1 h): 61.4 nM
Compound: CN=S1(=O)CC=C(c2cc3c(N[C@H](C)c4cccc(C(F)F)c4F)ncnc3n(C)c2=O)CC1 (stereo partly drawn) [Example 24, 4-(((R)-1-(3-(difluoromethyl)-2-fluorophenyl)ethyl)amino)-8-methyl-6-(1-(methylimino)-1-oxido-1,2,3,6-tetrahydro-1λ^6-thiopyran-4-yl)pyrido[2,3-d]pyrimidin-7(8H)-one]

IC50 ([3]; Homo sapiens, PC-9, 1 h): 268 nM
Compound: CO[C@]1(c2cc3c(N[C@H](C)c4cccc(C(F)F)c4F)ncnc3n(C)c2=O)CCN(S(C)(=O)=O)C1 [Example 32-16]

IC50 ([3]; Homo sapiens, PC-9, 1 h): 73.8 nM
Compound: [2H]C(=O)N1CCC(c2cc3c(N[C@H](C)c4cccc(C(F)F)c4F)ncnc3n(C)c2=O)CC1 [Example 33-25]

IC50 ([3]; Homo sapiens, PC-9, 1 h): 244 nM
Compound: COC1(c2cc3c(N[C@H](C)c4cccc(C(F)F)c4F)ncnc3n(C)c2=O)CCC2CN(C(C)=O)CC21 (some centres unmarked) [Example 32-35]

IC50 [3]: 54.7 nM
Compound: CC1CC(c2cc3c(N[C@H](C)c4cccc(C(F)F)c4F)ncnc3n(C)c2=O)CCS1(=O)=O (some centres unmarked) [Example 33-8]

IC50 [3]: 70.6 nM
Compound: CN=S1(=O)CCC(F)(c2cc3c(N[C@H](C)c4cccc(C(F)F)c4F)ncnc3n(C)c2=O)CC1 (stereo partly drawn) [Example 52, 4-(((R)-1-(3-(difluoromethyl)-2-fluorophenyl)ethyl)amino)-6-((1R,4r)-4-fluoro-1-(methylimino)-1-oxidohexahydro-1λ-thiopyran-4-yl)-8-methylpyrido[2,3-d]pyrimidin-7(8H)-one]

IC50 ([3]; Homo sapiens, PC-9, 1 h): 180 nM
Compound: C[C@@H](Nc1ncnc2c1cc(C1(N)CC3(C1)CS(=O)(=O)C3)c(=O)n2C)c1cccc(C(F)F)c1F [Example 31-4]

IC50 ([3]; Homo sapiens, PC-9, 1 h): 1310 nM
Compound: COC1(c2cc3c(N[C@H](C)c4cccc(C(F)F)c4F)ncnc3n(C)c2=O)C[C@H]2C[C@@H]1CN2C(C)=O (some centres unmarked) [Example 32-14]

IC50 ([3]; Homo sapiens, PC-9, 1 h): 393 nM
Compound: COC1(c2cc3c(N[C@H](C)c4cccc(C(F)F)c4F)ncnc3n(C)c2=O)CC2(CCN(C(C)=O)C2)C1 (some centres unmarked) [Example 32-21]

IC50 [3]: 21 nM
Compound: CC1CC(c2cc3c(N[C@H](C)c4cccc(C(F)F)c4F)ncnc3n(C)c2=O)CCS1(=O)=O (some centres unmarked) [Example 33-13]

IC50 [3]: 51.8 nM
Compound: C[C@@H](Nc1ncnc2c1cc(C1(N)CCP(C)(=O)CC1)c(=O)n2C)c1cccc(C(F)F)c1F (some centres unmarked) [Example 31-10]

IC50 [3]: 112 nM
Compound: COC1(c2cc3c(N[C@H](C)c4cccc(C(F)F)c4F)ncnc3n(C)c2=O)CCS(=N)(=O)CC1 (single isomer, unassigned) [Example 50]

IC50 [3]: 181 nM
Compound: COC1(c2cc3c(N[C@H](C)c4cccc(C(F)F)c4F)ncnc3n(C)c2=O)CCN(C(C)=O)C2(CC2)C1 (some centres unmarked) [Example 32-43]

IC50 ([3]; Homo sapiens, PC-9, 1 h): 461 nM
Compound: CO[C@]1(c2cc3c(N[C@H](C)c4cccc(C(F)F)c4F)ncnc3n(C)c2=O)C[C@H](N(C)C(C)=O)C1 [Example 32-41]

IC50 ([3]; Homo sapiens, PC-9, 1 h): 220 nM
Compound: COCCN1CCN(C(=O)c2cc3c(N[C@H](C)c4cccc(C(F)F)c4F)ncnc3n(C)c2=O)CC1 [Example 26-48]

IC50 ([3]; Homo sapiens, PC-9, 1 h): 28.1 nM
Compound: CC(=O)N1CCC(C#N)(c2cc3c(N[C@H](C)c4cccc(C(F)F)c4F)ncnc3n(C)c2=O)CC1 [Example 36, 1-acetyl-4-(4-{[(1R)-1-[3-(difluoromethyl)-2-fluorophenyl]ethyl]amino}-8-methyl-7-oxo-7H,8H-pyrido[2,3-d]pyrimidin-6-yl)piperidine-4-carbonitrile]

IC50 [3]: 44.1 nM
Compound: C[C@@H](Nc1ncnc2c1cc(C1(F)CCS(=O)(=NC3CC3)CC1)c(=O)n2C)c1cccc2c1OCC2(F)F (some centres unmarked) [Example 56-5]

IC50 [3]: 270 nM
Compound: CC1CC(c2cc3c(N[C@H](C)c4cccc(C(F)F)c4F)ncnc3n(C)c2=O)CCS1(=O)=O (some centres unmarked) [Example 33-9]

IC50 ([3]; Homo sapiens, PC-9, 1 h): 152 nM
Compound: C[C@@H](Nc1ncnc2c1cc(C(=O)N1CCC13CS(=O)(=O)C3)c(=O)n2C)c1cccc(C(F)F)c1F [Example 26-52]
